Several values for one entry are separate records, joined by “and”; a condition that tells them apart may be missing. Identical values can stand only once. Entries after “also recorded” stand apart in the source; their conditions may differ.
Test: Mouse pharmacokinetic (PK) study, parent compound and psilocin metabolite in plasma
Type: in vivo, C57Bl/6 mice
Text: Briefly, the procedure was as follows. […] 19, 2022.

[1] = administered compound itself in plasma, 1 mg/kg i.v., individual animals, 1 mg/kg

CN(C)CCc1c[nH]c2cccc(OC(=O)c3cccc4c3OCCO4)c12 [C(XX)]
Plasma concentration of C(XX) (1 mg/kg i.v. C(XX), 5 min, individual animals): 152 ng/mL and 105 ng/mL
Plasma concentration of C(XX) (1 mg/kg i.v. C(XX), 0.25 h, individual animals): 84.7 ng/mL and 60.3 ng/mL
Plasma concentration of C(XX) (1 mg/kg i.v. C(XX), 0.5 h, individual animals): 37.9 ng/mL and 32.1 ng/mL
Plasma concentration of C(XX) (1 mg/kg i.v. C(XX), 1 h, individual animals): 8.13 ng/mL and 8.22 ng/mL
Plasma concentration of C(XX) (1 mg/kg i.v. C(XX), 2 h, individual animals): 1.03 ng/mL and 1.14 ng/mL
Plasma concentration of C(XX) (1 mg/kg i.v. C(XX), 4 h, individual animals): 0.137 ng/mL and 0.148 ng/mL
Plasma concentration of C(XX) (1 mg/kg i.v. C(XX), 6 h, individual animals): BLQ (BLQ denotes below the lower limit of quantitation (0.25 ng/mL).)
Plasma concentration of psilocin (1 mg/kg i.v. C(XX), 8 h, animals M49-M51): BLQ (BLQ denotes below the lower limit of quantitation (0.5 ng/mL).)
Plasma concentration of C(XX) (1 mg/kg i.v. C(XX), 8 h, individual animals): BLQ (BLQ denotes below the lower limit of quantitation (0.25 ng/mL).) and No (2×)
Plasma concentration of C(XX) (1 mg/kg oral C(XX), 0.25 h, individual animals): 0.459 ng/mL and 0.648 ng/mL
Plasma concentration of C(XX) (1 mg/kg oral C(XX), 0.5 h, individual animals): 0.509 ng/mL and 0.648 ng/mL
Plasma concentration of C(XX) (1 mg/kg oral C(XX), 1 h, individual animals): 0.286 ng/mL and 0.199 ng/mL
Plasma concentration of C(XX) (1 mg/kg oral C(XX), 2 h, individual animals): BLQ (BLQ denotes below the lower limit of quantitation (0.25 ng/mL).)
Plasma concentration of C(XX) (1 mg/kg oral C(XX), 4 h, individual animals): BLQ (BLQ denotes below the lower limit of quantitation (0.25 ng/mL).)
Plasma concentration of C(XX) (1 mg/kg oral C(XX), 6 h, individual animals): No Peak; also recorded: BLQ (BLQ denotes below the lower limit of quantitation (0.25 ng/mL).)
Plasma concentration of C(XX) (1 mg/kg oral C(XX), 8 h, individual animals): No Peak; also recorded: BLQ (BLQ denotes below the lower limit of quantitation (0.25 ng/mL).)
Plasma concentration of psilocin (1 mg/kg oral C(XX), 24 h, animals M52-M54): BLQ (BLQ denotes below the lower limit of quantitation (0.5 ng/mL).)
Plasma concentration of C(XX) (1 mg/kg oral C(XX), 24 h, individual animals): No Peak
Plasma concentration of C(XX) (3 mg/kg oral C(XX), 0.25 h, individual animals): 1.72 ng/mL and 1.93 ng/mL
Plasma concentration of C(XX) (3 mg/kg oral C(XX), 0.5 h, individual animals): 1.13 ng/mL and 1.43 ng/mL
Plasma concentration of C(XX) (3 mg/kg oral C(XX), 1 h, individual animals): 0.752 ng/mL and 0.535 ng/mL
Plasma concentration of C(XX) (3 mg/kg oral C(XX), 2 h, individual animals): 0.244 ng/mL and 0.156 ng/mL
Plasma concentration of C(XX) (3 mg/kg oral C(XX), 4 h, individual animals): No Peak; also recorded: BLQ (BLQ denotes below the lower limit of quantitation (0.25 ng/mL).)
Plasma concentration of C(XX) (3 mg/kg oral C(XX), 6 h, individual animals): No Peak; also recorded: BLQ (BLQ denotes below the lower limit of quantitation (0.25 ng/mL).)
Plasma concentration of C(XX) (3 mg/kg oral C(XX), 8 h, individual animals): No Peak; also recorded: BLQ (BLQ denotes below the lower limit of quantitation (0.25 ng/mL).)
Plasma concentration of psilocin (3 mg/kg oral C(XX), 24 h, animals M55-M57): BLQ (BLQ denotes below the lower limit of quantitation (0.5 ng/mL).)
Plasma concentration of C(XX) (3 mg/kg oral C(XX), 24 h, individual animals): No Peak
F(%) (3 mg/kg oral, no footnote on basis (Table 36B), individual animals): 1.08% and 0.962%
Plasma concentration of C(XX) (10 mg/kg oral C(XX), 0.25 h, individual animals): 2.99 ng/mL and 9.12 ng/mL and 10.3 ng/mL
Plasma concentration of C(XX) (10 mg/kg oral C(XX), 0.5 h, individual animals): 2.79 ng/mL and 3.87 ng/mL and 5.79 ng/mL
Plasma concentration of C(XX) (10 mg/kg oral C(XX), 1 h, individual animals): 1.69 ng/mL and 2.74 ng/mL
Plasma concentration of C(XX) (10 mg/kg oral C(XX), 2 h, individual animals): 0.707 ng/mL and 0.533 ng/mL and 1.08 ng/mL
Plasma concentration of C(XX) (10 mg/kg oral C(XX), 4 h, individual animals): BLQ (BLQ denotes below the lower limit of quantitation (0.25 ng/mL).) and 0.302 ng/mL
Plasma concentration of C(XX) (10 mg/kg oral C(XX), 6 h, individual animals): 0.524 ng/mL and BLQ (BLQ denotes below the lower limit of quantitation (0.25 ng/mL).) and 0.196 ng/mL
Plasma concentration of C(XX) (10 mg/kg oral C(XX), 8 h, individual animals): BLQ (BLQ denotes below the lower limit of quantitation (0.25 ng/mL).) and 0.185 ng/mL
Plasma concentration of psilocin (10 mg/kg oral C(XX), 24 h, animals M58-M60): BLQ (BLQ denotes below the lower limit of quantitation (0.5 ng/mL).)
Plasma concentration of C(XX) (10 mg/kg oral C(XX), 24 h, individual animals): No Peak
AUC0-inf [1]: 62.5 ng·h/mL and 48.1 ng·h/mL
AUC0-inf/Dose [1]: 48.3 kg·ng·h/mL/mg and 62.5 kg·ng·h/mL/mg and 48.1 kg·ng·h/mL/mg
AUC0-tlast [1]: 62.4 ng·h/mL and 48.0 ng·h/mL
AUC0-tlast/Dose [1]: 48.1 kg·ng·h/mL/mg and 62.4 kg·ng·h/mL/mg and 48.0 kg·ng·h/mL/mg
Apparent t1/2 [1]: 31.7 min and 32.2 min
C0 [1]: 204 ng/mL and 139 ng/mL
CL [1]: 266.52 mL/min/kg and 346.28 mL/min/kg
MRT0-inf [1]: 22 min and 25.7 min
Vss [1]: 5.874 L/kg and 8.913 L/kg
